Laboratory results taken from patent US7550451B2, “Progesterone receptor modulators with increased antigonadotropic activity for female birth control and hormone replacement therapy” (Bayer Schering Pharma AG, priority 2002, dated 2009).

Experiments:
Glucocorticoid receptor = biological target: T1, Glucocorticoid receptor (Rattus norvegicus, UniProt P06536); test: Receptor binding affinity, glucocorticoid receptor (competitive binding, 3H-dexamethasone); settings: Dexamethasone = 100%; thymus cytosol of adrenalectomized rat
T1 construct: Thymus cytosol of the adrenalectomized rat; from tissue; host or cells: thymus cytosol of adrenalectomized rat
T1 sequence (P06536 1-795): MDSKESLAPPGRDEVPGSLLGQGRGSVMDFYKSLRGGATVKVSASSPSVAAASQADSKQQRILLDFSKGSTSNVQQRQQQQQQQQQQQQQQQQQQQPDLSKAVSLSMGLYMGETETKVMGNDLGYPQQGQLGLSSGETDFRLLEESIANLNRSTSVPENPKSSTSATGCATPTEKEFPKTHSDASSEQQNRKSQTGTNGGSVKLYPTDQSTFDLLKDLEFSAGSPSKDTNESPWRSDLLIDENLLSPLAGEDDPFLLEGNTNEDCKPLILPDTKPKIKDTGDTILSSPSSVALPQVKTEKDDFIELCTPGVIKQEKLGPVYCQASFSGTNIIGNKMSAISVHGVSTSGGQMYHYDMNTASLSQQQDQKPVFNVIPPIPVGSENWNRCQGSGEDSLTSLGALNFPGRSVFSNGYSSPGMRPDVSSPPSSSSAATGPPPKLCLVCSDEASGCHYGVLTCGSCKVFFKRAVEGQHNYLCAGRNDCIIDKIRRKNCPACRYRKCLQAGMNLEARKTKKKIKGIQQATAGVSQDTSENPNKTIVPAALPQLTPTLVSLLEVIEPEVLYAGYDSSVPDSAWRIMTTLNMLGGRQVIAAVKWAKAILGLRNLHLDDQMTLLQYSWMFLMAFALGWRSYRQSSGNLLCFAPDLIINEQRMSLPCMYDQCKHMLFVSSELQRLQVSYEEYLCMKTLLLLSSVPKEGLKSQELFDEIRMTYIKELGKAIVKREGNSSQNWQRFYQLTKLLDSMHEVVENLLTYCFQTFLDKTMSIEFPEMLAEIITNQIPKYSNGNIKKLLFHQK
Experimental: (§1) The receptor binding affinity was determined by competitive binding of a specifically binding ^3H-labeled hormone (tracer) and the compound to be tested on receptors in the cytosol from animal target organs. In this case, receptor saturation and reaction equilibrium were sought.
(§2) The tracers and increasing concentrations of the compound to be tested (competitor) were co-incubated with the receptor-containing cytosol fraction at 0-4° C. over 18 hours. After separation of the unbonded tracer with carbon-dextran suspension, the receptor-bonded tracer portion was measured for each concentration, and the IC50 was determined from the concentration sequence. As a quotient of the IC50 values of the reference substance and the compound to be tested (×100%), the relative molar binding affinity (RBA) was calculated (RBA of the reference substance=100%).
Thymus cytosol of the adrenalectomized rat, thymi stored at −30° C.; buffer: TED. Tracer: ^3H-Dexamethasone, 20 nmol; reference substance: dexamethasone.

Progesterone receptor = biological target: T2, Progesterone receptor (Oryctolagus cuniculus, UniProt P06186); test: Receptor binding affinity, progesterone receptor (competitive binding, 3H-ORG 2058); settings: Progesterone = 100%; uterus cytosol of estradiol-primed rabbit
T2 construct: Uterus cytosol of the estradiol-primed rabbit; from tissue; host or cells: uterus cytosol of estradiol-primed rabbit
T2 sequence (P06186 1-930): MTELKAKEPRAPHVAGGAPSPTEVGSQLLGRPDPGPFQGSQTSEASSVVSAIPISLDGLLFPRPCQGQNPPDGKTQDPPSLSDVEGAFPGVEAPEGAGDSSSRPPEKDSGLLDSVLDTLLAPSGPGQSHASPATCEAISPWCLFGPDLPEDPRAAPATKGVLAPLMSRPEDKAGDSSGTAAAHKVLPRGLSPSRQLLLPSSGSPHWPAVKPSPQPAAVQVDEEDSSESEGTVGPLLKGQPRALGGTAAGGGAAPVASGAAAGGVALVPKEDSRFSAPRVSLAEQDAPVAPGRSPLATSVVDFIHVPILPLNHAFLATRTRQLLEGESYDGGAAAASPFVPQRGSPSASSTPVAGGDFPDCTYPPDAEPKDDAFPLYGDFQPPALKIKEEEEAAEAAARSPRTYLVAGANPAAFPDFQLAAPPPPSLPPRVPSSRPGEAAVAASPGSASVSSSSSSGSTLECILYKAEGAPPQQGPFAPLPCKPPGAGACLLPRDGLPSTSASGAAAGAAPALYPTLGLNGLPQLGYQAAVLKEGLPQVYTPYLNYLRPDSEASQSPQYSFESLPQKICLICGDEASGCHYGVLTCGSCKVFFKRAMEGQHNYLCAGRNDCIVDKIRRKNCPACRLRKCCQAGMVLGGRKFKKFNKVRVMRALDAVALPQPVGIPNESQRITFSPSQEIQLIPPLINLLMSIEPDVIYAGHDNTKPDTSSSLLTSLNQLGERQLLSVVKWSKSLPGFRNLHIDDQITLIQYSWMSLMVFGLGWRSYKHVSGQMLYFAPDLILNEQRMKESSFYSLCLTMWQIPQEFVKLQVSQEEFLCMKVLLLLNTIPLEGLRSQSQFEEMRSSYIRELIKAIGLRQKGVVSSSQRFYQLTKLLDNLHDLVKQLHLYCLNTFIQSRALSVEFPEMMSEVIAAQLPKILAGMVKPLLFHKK
Experimental: as §1, §2
Uterus cytosol of the estradiol-primed rabbit; homogenized in TED buffer (20 mmol of Tris/HCl, pH 7.4; 1 mmol of ethylenediamine tetraacetate, 2 mmol of dithiothreitol) with 250 mmol of saccharose; stored at −30° C. Tracer: ^3H-ORG 2058, 5 nmol; reference substance: progesterone.

C[C@]12C[C@H](c3ccc(/C=N/O)cc3)C3=C4CCC(=O)C=C4CC[C@H]3[C@@H]1CC[C@@H]2O [Example 1, 4-(17β-Hydroxy-3-oxoestra-4,9-dien-11β-yl)benzaldehyde-1(E)-oxime]
GR relative molar binding affinity (RBA) (Glucocorticoid receptor): 3%
PR relative molar binding affinity (RBA) (Progesterone receptor): 26%

CC1(O)CCC2C3CCC4=CC(=O)CCC4=C3C(c3ccc(C=NO)cc3)CC21C (stereo not drawn) [Example 2, 4-(17β-Hydroxy-17α-methyl-3-oxoestra-4,9-dien-11β-yl)benzaldehyde-1(E)-oxime]
GR relative molar binding affinity (RBA) (Glucocorticoid receptor): 12%
PR relative molar binding affinity (RBA) (Progesterone receptor): 95%
